# Read-outs that look alike come from different tables or passages of the source.
# What was measured:
# [1] = molecular target: GDP-loaded KRAS-G12V (Homo sapiens (Human), UniProt P01116, G12V); assay: KRAS (GDP) biochemical TR-FRET probe displacement assay, KRAS-G12V; type: binding; conditions: 2 hours
# Procedure: (§1) KRAS (GDP) Biochemical Assays:
# (§2) Compounds were serially diluted (1:3) in DMSO. The LabCyte ECHO Acoustic dispenser was used to pre-spot the assay plates (384-well Non-Binding Surface plates, Corning, Catalog #3824) with 50 nL of compound. 5 μL of 2× enzyme concentration was added to the pre-spotted plates and incubated for 30 minutes before adding 5 μL of 2× concentration of Eu-streptavidin and Cy-5 labelled probe (10 μL final reaction volume). The plates were incubated at room temperature for 2 hours before measuring TR-FRET ratio (665 nm/615 nm) on the Envision multimode plate reader. The ratios were normalized to a positive (saturating concentration of known inhibitor) and negative (DMSO) control and plotted against the log of compound concentration.
# [2] = test system: cellular pERK in Kuramochi (WT KRAS) cell-line; assay: Cell based pERK assay (HTRF), Kuramochi; conditions: Kuramochi (WT KRAS) cells, 2 hours incubation
# In short: (§3)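 IC50 values derive from TR-FRET ratios scaled between DMSO (negative) and a saturating reference inhibitor (positive). The signal reports phospho-ERK1/2 in lysates from cells exposed to compound for 2 h at 37 °C.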
# [3] = molecular target: GDP-loaded wild-type KRAS (WT) (Homo sapiens (Human), UniProt P01116); assay: KRAS (GDP) biochemical TR-FRET probe displacement assay, WT KRAS; type: binding; conditions: 2 hours
# Procedure: as §1, §2
# [4] = molecular target: GDP-loaded KRAS-G12C (Homo sapiens (Human), UniProt P01116, G12C); assay: KRAS (GDP) biochemical TR-FRET probe displacement assay, KRAS-G12C; type: binding; conditions: 2 hours
# Procedure: as §1, §2
# [5] = molecular target: GDP-loaded KRAS-G12D (Homo sapiens (Human), UniProt P01116, G12D); assay: KRAS (GDP) biochemical TR-FRET probe displacement assay, KRAS-G12D; type: binding; conditions: 2 hours
# Procedure: as §1, §2
# [6] = test system: cellular pERK in MIA-PaCa-2 (KRAS-G12C) cell-line; assay: Cell based pERK assay (HTRF), MIA-PaCa-2; conditions: MIA-PaCa-2 (KRAS-G12C) cells, 2 hours incubation, read-out: MIAPaCa2 pERK EC50
# In short: as §3
# [7] = test system: cellular pERK in NCI-H441 (KRAS-G12V) cell-line; assay: Cell based pERK assay (HTRF), NCI-H441; conditions: NCI-H441 (KRAS-G12V) cells, 2 hours incubation
# In short: as §3
# [8] = test system: cellular pERK in ASPC-1 (KRAS G12D) cell-line; assay: Cell based pERK assay (HTRF), ASPC-1; conditions: ASPC-1 (KRAS G12D) cells, 2 hours incubation
# In short: as §3
# Chain of GDP-loaded wild-type KRAS (WT) (P01116-2 other isoform, or with tags, fused parts or gaps): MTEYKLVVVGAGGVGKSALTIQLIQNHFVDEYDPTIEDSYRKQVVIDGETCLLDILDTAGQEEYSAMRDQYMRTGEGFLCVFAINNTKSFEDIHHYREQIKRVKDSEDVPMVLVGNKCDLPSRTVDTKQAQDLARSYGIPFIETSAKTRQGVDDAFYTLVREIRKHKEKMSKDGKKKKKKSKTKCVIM
# Chain of GDP-loaded KRAS-G12D (P01116-2 other isoform, or with tags, fused parts or gaps G12D): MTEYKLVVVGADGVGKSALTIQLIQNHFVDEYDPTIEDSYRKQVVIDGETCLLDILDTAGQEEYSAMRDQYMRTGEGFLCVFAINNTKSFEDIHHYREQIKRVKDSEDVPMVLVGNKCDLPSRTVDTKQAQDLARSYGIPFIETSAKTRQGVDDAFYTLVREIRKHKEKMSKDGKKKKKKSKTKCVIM
# Chain of GDP-loaded KRAS-G12V (P01116-2 other isoform, or with tags, fused parts or gaps G12V): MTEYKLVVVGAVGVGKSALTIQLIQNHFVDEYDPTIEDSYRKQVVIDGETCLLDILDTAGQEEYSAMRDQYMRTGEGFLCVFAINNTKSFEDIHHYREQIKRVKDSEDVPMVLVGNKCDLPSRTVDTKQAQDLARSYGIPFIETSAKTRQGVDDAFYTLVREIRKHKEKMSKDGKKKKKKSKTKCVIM
# Chain of GDP-loaded KRAS-G12C (P01116-2 other isoform, or with tags, fused parts or gaps G12C): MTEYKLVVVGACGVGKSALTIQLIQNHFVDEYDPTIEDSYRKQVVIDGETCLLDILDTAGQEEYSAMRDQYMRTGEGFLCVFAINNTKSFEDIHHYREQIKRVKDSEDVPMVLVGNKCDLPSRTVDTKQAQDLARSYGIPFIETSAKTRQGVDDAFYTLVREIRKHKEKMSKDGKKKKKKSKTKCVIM
IC50 [1] [nM],EC50 [2] [nM],IC50 [3] [nM],IC50 [4] [nM],IC50 [5] [nM],EC50 ([6]; Homo sapiens) [nM],EC50 ([7]; Homo sapiens) [nM],"EC50 ([8]; Homo sapiens, ASPC1) [nM]",EC50 [6] [nM],EC50 [7] [nM],EC50 ([8]; read-out: AsPC1 pERK EC50) [nM],SMILES
0.1,1.59,0.06,0.06,0.15,0.23,2.14,11.7,–,–,–,C#Cc1c(F)ccc2cc(O)cc(-c3nc4c5c(nc(OC[C@@]67CCCN6C[C@H](F)C7)nc5c3F)N3CCOCCC3CC4)c12 (mixture of isomers) [Example 6-13]
0.4,5.94,0.88,0.54,0.87,1.08,1.78,3.12,–,–,–,C#Cc1c(F)ccc2cc(O)cc(-c3c(F)c4c5c(nc(OC[C@@]67CCCN6C[C@H](F)C7)nc5c3F)N3CCCOC[C@@H]3CC4)c12 (mixture of isomers) [Example 6-21]
> 1000,> 1000,> 1000,> 1000,> 1000,–,–,–,> 1000,> 1000,> 1000,"C#Cc1c(F)ccc2cc(O)cc(-c3nc4c5c(nc(OC[C@@]67CCCN6C[C@H](F)C7)nc5c3F)N3CCCCC3CCn3nncc3-4)c12 (mixture of isomers) [Example 11-1, 5-ethynyl-6-fluoro-4-(1-fluoro-14-(((2R,7aS)-2-fluorotetrahydro-1H-pyrrolizin-7a(5H)-yl)methoxy)-8,8a,9,10,11,12-hexahydro-7H-3,5,6,6a,12a,13,15-heptaazabenzo[4,5]cyclopenta[8,9]cyclonona[1,2,3-de]naphthalen-2-yl)naphthalen-2-ol]"
4960,> 956,5290,1440,17500,–,–,–,4640,7240,27100,"Cc1cc(N)nc(-c2c(Cl)c3c4c(nc(OC[C@@]56CCCN5C[C@H](F)C6)nc4c2F)N2CCCOCC2CC3)c1C(F)(F)F (mixture of isomers) [Example 21-1, 6-(12-chloro-10-fluoro-8-(((2R,7aS)-2-fluorotetrahydro-1H-pyrrolizin-7a(5H)-yl)methoxy)-1,4,5,13,14,14a-hexahydro-3H-[1,4]oxazepino[4′,3′:1,7]azepino[2,3,4-de]quinazolin-11-yl)-4-methyl-5-(trifluoromethyl)pyridin-2-amine]"
0.1,1.59,0.06,0.06,0.15,0.23,2.14,11.7,–,–,–,"C#Cc1c(F)ccc2cc(O)cc(-c3nc4c5c(nc(OC[C@@]67CCCN6C[C@H](F)C7)nc5c3F)N3CCOCC[C@@H]3CC4)c12 (single isomer, unassigned) [Example 9-2]"
0.22,1.34,0.67,0.92,0.47,0.149,0.73,1.53,–,–,–,C#Cc1c(F)ccc2cc(O)cc(-c3nc4c5c(nc(OC[C@@]67CCCN6[C@H](COc6cc(C(F)(F)F)ncn6)CC7)nc5c3F)N3CCCOC[C@@H]3CC4)c12 [Example 6-12]
0.09,3.46,0.05,0.08,0.09,0.32,2.07,3.5,–,–,–,C#Cc1c(F)ccc2cc(O)cc(-c3nc4c5c(nc(OC[C@@]67CCCN6[C@H](COc6nccnc6C(F)C(C)F)CC7)nc5c3F)N3CCCOC[C@@H]3CC4)c12 (stereo partly shown) [Example 6-14]
29.2,231,67.9,36.6,38.5,403,> 749,> 859,–,–,–,C#Cc1c(F)ccc2cccc(-c3nc4c5c(nc(OC[C@@]67CCCN6[C@H](COc6cc(C(F)(F)F)ncn6)CC7)nc5c3F)N3CCCOC[C@@H]3CC4)c12 [Example 6-15]
0.05,1.14,0.06,0.05,0.04,0.06,0.2,0.44,–,–,–,C#Cc1c(F)ccc2cc(O)cc(-c3nc4c5c(nc(OC[C@@]67CCCN6C/C(=C\F)C7)nc5c3F)N3CCCOC[C@@H]3CC4)c12 [Example 6-23]
2.69,11.7,3.43,2.53,2.82,2.34,7.98,17.1,–,–,–,C#Cc1c(F)ccc2cc(O)cc(C3=C(F)C4N=C(OC[C@@]56CCCN5C[C@H](F)C6)N=C5C4C(=C3F)C(C)=C[C@H]3COCCCN53)c12 (stereo partly shown) [Example 6-28]
1.78,2.09,3.87,0.9,2.73,4.12,4.46,17.9,–,–,–,"C#Cc1c(F)ccc2cc(N)cc(-c3nc4c5c(nc(OC[C@@]67CCCN6C[C@H](F)C7)nc5c3F)N3CCCOC[C@@H]3CC4)c12 [Example 7-1, 5-ethynyl-6-fluoro-4-((S)-1-fluoro-12-(((2R,7aS)-2-fluorotetrahydro-1H-pyrrolizin-7a(5H)-yl)methoxy)-4,5,5a,6,9,10-hexahydro-8H-7-oxa-3,10a,11,13-tetraazanaphtho[1,8-ab]heptalen-2-yl) naphthalen-2-amine]"
2.01,4.47,2.26,1.02,4.5,9.04,8.95,26.3,–,–,–,C#Cc1c(F)ccc2cc(N)cc(-c3nc4c5c(nc(OC[C@@]67CCCN6[C@H](COc6cc(C(F)(F)F)ncn6)CC7)nc5c3F)N3CCCOC[C@@H]3CC4)c12 [Example 7-4]
0.65,1.4,1.8,0.55,1.76,1.34,3.48,21.2,–,–,–,C#Cc1c(F)ccc2cc(N)cc(-c3nc4c5c(nc(OC[C@@]67CCCN6[C@H](COc6cc(C(F)(F)F)cnn6)CC7)nc5c3F)N3CCCOC[C@@H]3CC4)c12 [Example 7-5]
1.2,4.17,1.93,1.09,3.15,3.88,11.8,32.1,–,–,–,C#Cc1c(F)ccc2cc(N)cc(-c3nc4c5c(nc(OC[C@@]67CCCN6[C@H](COc6nccnc6C(F)F)CC7)nc5c3F)N3CCCOC[C@@H]3CC4)c12 [Example 7-6]
15.8,7.88,30,4.58,24.6,8.18,32.6,104,–,–,–,C#Cc1c(F)ccc2cc(N)cc(-c3c(F)c4c5c(nc(OC[C@@]67CCCN6C[C@H](F)C7)nc5c3F)N3CCCOC[C@@H]3CC4)c12 [Example 7-12]
47.7,181,69.1,37.1,56.4,217,572,655,–,–,–,"C#Cc1c(F)ccc2cc(O)cc(-c3nc4c5c(nc(OCC6(CN7CCCCC7)CC6)nc5c3F)N3CCCOC[C@@H]3CC4)c12 [Example 15-1, (S)-5-ethynyl-6-fluoro-4-(1-fluoro-12-((1-(piperidin-1-ylmethyl)cyclopropyl)methoxy)-4,5,5a,6,9,10-hexahydro-8H-7-oxa-3,10a,11,13-tetraazanaphtho[1,8-ab]heptalen-2-yl)naphthalen-2-ol]"
17.1,85.9,–,13.4,22.2,115,272,216,–,–,–,C#Cc1c(F)ccc2cccc(-c3nc4c5c(nc(OCC6(CN7CCCCC7)CC6)nc5c3F)N3CCCOC[C@@H]3CC4)c12 [Example 15-2]
30.9,242,–,33.1,42.3,231,543,647,–,–,–,"C#Cc1c(F)ccc2cccc(-c3nc4c5c(nc(OC[C@@]67CCCN6[C@H](COC(=O)N(CC)CC)CC7)nc5c3F)N3CCCOC[C@@H]3CC4)c12 [Example 16-1, ((3S,7aS)-7a-((((S)-2-(8-ethynyl-7-fluoronaphthalen-1-yl)-1-fluoro-4,5,5a,6,9,10-hexahydro-8H-7-oxa-3,10a,11,13-tetraazanaphtho[1,8-ab]heptalen-12-yl)oxy)methyl)hexahydro-1H-pyrrolizin-3-yl)methyl diethylcarbamate]"

# From patent US20240383922A1, “KRAS Modulating Compounds” (Gilead Sciences, Inc., priority 2023, published 2024)
